Experimental findings from ChEMBL document CHEMBL1123356, “Plant antitumor agents. 22. Isolation of 11-hydroxycamptothecin from Camptotheca acuminata Decne: total synthesis and biological activity” (1986) are described below.

Format in all cases: functional, Mus musculus
Experiment [1] deals with L1210. Briefly: Compound was tested for active dose in L1210 Leukemia assay; 7.5-60 mg/kg.
Experiment [2] relates to L1210. Briefly: Compound was tested for maximum percentage T/C in L1210 Leukemia assay at 60 mg/kg (3 cures out of 6).
Experiment [3] relates to L1210. Briefly: Compound was tested for active dose in L1210 Leukemia assay; 2-8 mg/kg.
In experiment [4] the test system is L1210. Briefly: Compound was tested for maximum percentage T/C in L1210 Leukemia assay at 8 mg/kg (no cures out of 6).
Experiment [5] has as its system L1210. Briefly: Compound was tested for toxic dose in L1210 Leukemia assay.
Experiment [6] deals with L1210. Briefly: Compound was tested for active dose in L1210 Leukemia assay; 10-40 mg/kg.
The subject of experiment [7] is L1210. Briefly: Compound was tested for maximum percentage T/C in L1210 Leukemia assay at 40 mg/kg (no cures out of 6).

By T/C is commonly meant the result in the treated group divided by that in the control group, in per cent. `CC[C@@]1(O)C(=O)OCc2c1cc1n(c2=O)Cc2cc3ccc(O)cc3nc2-1` (racemic) displayed an Active dose in experiment [1] of 7.5 mg/kg. Moreover, the T/C in experiment [2] is on record as 357%.
As to `CC[C@@]1(O)C(=O)OCc2c1cc1n(c2=O)Cc2cc3ccccc3nc2-1` [CAMPTOTHECIN], the Active dose in experiment [3] amounted to 2 mg/kg. The same molecule came in with a T/C in experiment [4] of 164%. In experiment [5], this molecule came in with a Toxic dose of 16 mg/kg.
Regarding `CC[C@@](O)(C(=O)[O-])c1cc2n(c(=O)c1CO)Cc1cc3ccccc3nc1-2.[Na+]`, the Active dose in experiment [6] was determined as 10 mg/kg. Besides, in experiment [7], the T/C was 178%. In addition, the Toxic dose in experiment [5] came out at 80 mg/kg.
